Results as given in PubChem BioAssay AID1963845 (Molecular Pharmacology Branch, DTP, NCI, 2024).

System: 429239-143-T-J1-PDC complex spheroid viability
Assay: Anticancer human tumor 429239-143-T-J1-PDC patient-derived small cell lung carcinoma cell line growth inhibition [POLQ]
Details: for IC50: curve of first compound; for viability, T/C: stronger effect = lower value
Method: Multicellular complex tumor spheroid response to Polymerase (POL) inhibitors (novobiocin, ART-558, RP6685) in combination with a variety of drugs and investigational agents in selected tumor cell lines
The POL inhibitors (novobiocin, ART-558, and RP6685) were evaluated both individually and in combination with standard of care and investigational anticancer small molecules within a complex spheroid model of solid tumors. . Complex spheroids include a stromal component modeled by human endothelial cells (HUVEC) and fibroblasts modeled by human mesenchymal stem cells (MSCs). The concentration ranges selected for each drug and investigational agent were based upon clinically achievable concentrations if the clinical Cmax of the agent was known.
Compounds. The drugs and investigational agents: novobiocin (NSC847541), ART-558 (NSC835418), RP-6685 (NSC848927), peposertib (NSC802822), ceralasertib (NSC780249), elimusertib (NSC800525), camonsertib (NSC841442), AZD-1390 (NSC803789), olaparib (NSC753686), talazoparib (NSC767125), rucaparib (NSC756644), sotorasib (NSC818433), MRTX-1133 (NSC836407), SN-38 (NSC673596), topotecan (NSC609699), epotoside (NSC141540), doxorubicin (NSC123127), gemcitabine (NSC613327), 5-fluorouracil (NSC19893), paclitaxel (NSC125973), vemurafenib (NSC761431), MSA-2 (NSC828583), SN-011 (NSC837082), adavosertib (NSC754352), prexasertib (NSC758257), carboplatin (NSC241240) and oxaliplatin (NSC266046), were obtained from the National Cancer Institute (NCI) Developmental Therapeutics Program Chemical Repository (21). The FDA-approved anticancer drug set is available from the Developmental Therapeutics Program at https://dtp.cancer.gov/organization/dscb/obtaining/. […] The stock solutions were prepared in dimethyl sulfoxide (DMSO, Sigma-Aldrich, St. Louis, MO, cat. D2650), except for the platinum compounds which were prepared in saline (Quality Biological, Gaithersburg, MD, cat. 114-055-101), at 800-fold the tested concentration and stored at -70 degrees C prior to their use. All drugs and investigational agents were tested over a range starting from a high concentration at or near the clinical Cmax and decreasing in half-log increments. If the clinical Cmax for an agent had not been determined, the highest concentration tested was 10 microM, except for SN-38, which was tested at a high concentration of 1 microM.
Cell Culture. All cells were maintained in an incubator at 37 degrees C and 5% CO2 with 95% humidity. The PDC lines were cultured according to standard operating procedures established by the NCI PDMR (https://pdmr.cancer.gov). Table 3 of the manuscript, lists the cell lines along with the number of the three cell types plated to form the mct-spheroids and media for tumor cell growth. After thawing, all PDC lines, except 997537-175-T-J1-PDC and 415267-285-R-J2-PDC, were cultured in Matrigel-coated flasks prepared with a working solution of 1X Ham's F-12 nutrient mix, without supplementation (Thermo Fisher Scientific, cat. 11765054), 100 U/mL penicillin-streptomycin (Thermo Fisher Scientific, cat. 15140122), and 2.5% Matrigel (Corning Inc., Corning, NY, cat. 354248) for the first three passages. The two PDC lines 997537-175-T-J1-PDC and 415267-285-R-J2-PDC were cultured on uncoated flasks. The 857933-349-R-J2-PDC line was cultured in 6C/Colon 1B media containing advanced DMEM/F-12 (Thermo Fisher Scientific, cat. 12634028), 10 mM HEPES (Thermo Fisher Scientific, cat. 15630080), 1X GlutaMAX supplement (Thermo Fisher Scientific, cat. 35050061), 0.1 mg/mL primocin (InvivoGen, San Diego, CA, cat. ant-pm-2), 10% defined fetal bovine serum, heat inactivated (HyClone Laboratories Inc., Logan, UT, cat. SH30070.03HI), 50% L-WRN conditioned media (ATCC, cat. CRL-3276), 1.25 mM N-Acetyl-L-cysteine (Sigma-Aldrich, cat. A9165), 10 mM nicotinamide (Sigma-Aldrich, cat. N0636), 1X B-27 supplement (Thermo Fisher Scientific, cat. 17504044), 1X N-2 supplement (Thermo Fisher Scientific, cat. […]

[1] = second compound 0.0316 µM, first compound 0.0316 µM
[2] = second compound 0.0316 µM, first compound 0.1 µM
[3] = second compound 0.0316 µM, first compound 0.316 µM
[4] = second compound 0.0316 µM, first compound 1 µM
[5] = second compound 0.1 µM, first compound 0.0316 µM
[6] = second compound 0.1 µM, first compound 0.1 µM
[7] = second compound 0.1 µM, first compound 0.316 µM
[8] = second compound 0.1 µM, first compound 1 µM
[9] = second compound 0.316 µM, first compound 0.0316 µM
[10] = second compound 0.316 µM, first compound 0.1 µM
[11] = second compound 0.316 µM, first compound 0.316 µM
[12] = second compound 0.316 µM, first compound 1 µM
[13] = second compound 1 µM, first compound 0.0316 µM
[14] = second compound 1 µM, first compound 0.1 µM
[15] = second compound 1 µM, first compound 0.316 µM
[16] = second compound 1 µM, first compound 1 µM
[17] = second compound 3.16 µM, first compound 0.0316 µM
[18] = second compound 3.16 µM, first compound 0.1 µM
[19] = second compound 3.16 µM, first compound 0.316 µM
[20] = second compound 3.16 µM, first compound 1 µM
[21] = second compound 10 µM, first compound 0.0316 µM
[22] = second compound 10 µM, first compound 0.1 µM
[23] = second compound 10 µM, first compound 0.316 µM
[24] = second compound 10 µM, first compound 1 µM
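Also: luminescence signal used as surrogate measure of viable cells; spheroids exposed to compounds for seven days before readout.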
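For viability, T/C in this document: 100% = DMSO vehicle control viability as luminescence relative to vehicle.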

Nc1ccn(C2OC(CO)C(O)C2(F)F)c(=O)n1 (centres undefined) + COC1C(OC(N)=O)C(O)C(Oc2ccc3c(O)c(NC(=O)c4ccc(O)c(CC=C(C)C)c4)c(=O)oc3c2C)OC1(C)C
IC50 (second compound 0.0316 µM): < 31.6 nM
IC50 (second compound 0.1 µM): < 31.6 nM
IC50 (second compound 0.316 µM): < 31.6 nM
IC50 (second compound 1 µM): < 31.6 nM
IC50 (second compound 3.16 µM): < 31.6 nM
IC50 (second compound 10 µM): < 31.6 nM
viability, T/C [1]: 23.4%
viability, T/C [2]: 19.2%
viability, T/C [3]: 19.7%
viability, T/C [4]: 16.5%
viability, T/C (second compound 0.0316 µM, first compound 3.16 µM): 17.5%
viability, T/C (second compound 0.0316 µM, first compound 10 µM): 16.4%
viability, T/C [5]: 15.1%
viability, T/C [6]: 17.8%
viability, T/C [7]: 18.2%
viability, T/C [8]: 17.4%
viability, T/C (second compound 0.1 µM, first compound 3.16 µM): 17.3%
viability, T/C (second compound 0.1 µM, first compound 10 µM): 16.1%
viability, T/C [9]: 22.2%
viability, T/C [10]: 17.1%
viability, T/C [11]: 16.7%
viability, T/C [12]: 18.4%
viability, T/C (second compound 0.316 µM, first compound 3.16 µM): 16.9%
viability, T/C (second compound 0.316 µM, first compound 10 µM): 14.8%
viability, T/C [13]: 17.4%
viability, T/C [14]: 17.4%
viability, T/C [15]: 17.8%
viability, T/C [16]: 16.1%
viability, T/C (second compound 1 µM, first compound 3.16 µM): 18.4%
viability, T/C (second compound 1 µM, first compound 10 µM): 21%
viability, T/C [17]: 14.9%
viability, T/C [18]: 13.9%
viability, T/C [19]: 19.1%
viability, T/C [20]: 12.5%
viability, T/C (second compound 3.16 µM, first compound 3.16 µM): 16.3%
viability, T/C (second compound 3.16 µM, first compound 10 µM): 13.5%
viability, T/C [21]: 14.5%
viability, T/C [22]: 16.9%
viability, T/C [23]: 17.5%
viability, T/C [24]: 20.4%
viability, T/C (second compound 10 µM, first compound 3.16 µM): 17%
viability, T/C (second compound 10 µM, first compound 10 µM): 17.1%

CCc1c2c(nc3ccc(O)cc13)-c1cc3c(c(=O)n1C2)COC(=O)[C@]3(O)CC + COC1C(OC(N)=O)C(O)C(Oc2ccc3c(O)c(NC(=O)c4ccc(O)c(CC=C(C)C)c4)c(=O)oc3c2C)OC1(C)C
IC50 (second compound 0.0316 µM): < 3.16 nM
IC50 (second compound 0.1 µM): < 3.16 nM
IC50 (second compound 0.316 µM): < 3.16 nM
IC50 (second compound 1 µM): < 3.16 nM
IC50 (second compound 3.16 µM): < 3.16 nM
IC50 (second compound 10 µM): < 3.16 nM
viability, T/C (second compound 0.0316 µM, first compound 0.00316 µM): 19.1%
viability, T/C (second compound 0.0316 µM, first compound 0.01 µM): 17.6%
viability, T/C [1]: 17.5%
viability, T/C [2]: 20%
viability, T/C [3]: 17.5%
viability, T/C [4]: 8.92%
viability, T/C (second compound 0.1 µM, first compound 0.00316 µM): 17%
viability, T/C (second compound 0.1 µM, first compound 0.01 µM): 17.4%
viability, T/C [5]: 17.8%
viability, T/C [6]: 20.6%
viability, T/C [7]: 14%
viability, T/C [8]: 5.7%
viability, T/C (second compound 0.316 µM, first compound 0.00316 µM): 17.4%
viability, T/C (second compound 0.316 µM, first compound 0.01 µM): 18.3%
viability, T/C [9]: 17.3%
viability, T/C [10]: 14.5%
viability, T/C [11]: 15.6%
viability, T/C [12]: 5.23%
viability, T/C (second compound 1 µM, first compound 0.00316 µM): 21.4%
viability, T/C (second compound 1 µM, first compound 0.01 µM): 18.1%
viability, T/C [13]: 18%
viability, T/C [14]: 19.1%
viability, T/C [15]: 12.5%
viability, T/C [16]: 6.46%
viability, T/C (second compound 3.16 µM, first compound 0.00316 µM): 20.1%
viability, T/C (second compound 3.16 µM, first compound 0.01 µM): 14.8%
viability, T/C [17]: 18.4%
viability, T/C [18]: 18.5%
viability, T/C [19]: 15.3%
viability, T/C [20]: 5.6%
viability, T/C (second compound 10 µM, first compound 0.00316 µM): 18.1%
viability, T/C (second compound 10 µM, first compound 0.01 µM): 18.9%
viability, T/C [21]: 18.2%
viability, T/C [22]: 15.8%
viability, T/C [23]: 14.8%
viability, T/C [24]: 5.55%
